{"source": "patent US8551963B2", "about": "“Imidazolothiazole compounds and methods of use thereof” (Ambit Biosciences Corporation, priority 2008, dated 2013)", "key": {"RS4;11 cells": {"system": "RS4;11 cells", "experiment": "RS4;11 cellular proliferation assay (Cell Titer Blue)", "format": "cell-based", "conditions": "Homo sapiens, RS4-11, 48 h, read-out: EC50 (50% inhibition of cellular proliferation)"}, "in vitro [1]": {"experiment": "in vitro", "conditions": "rat, microsomes, pH 7.4"}, "in vitro [2]": {"experiment": "in vitro", "conditions": "monkey, microsomes, pH 7.4"}, "MV4;11 cells": {"system": "MV4;11 cells", "experiment": "MV4;11 cellular proliferation assay (Cell Titer Blue)", "format": "cell-based", "conditions": "Homo sapiens, MV4-11, 72 h, read-out: EC50 (50% inhibition of cellular proliferation)"}, "in vitro [3]": {"experiment": "in vitro", "conditions": "dog, microsomes"}, "in vitro [4]": {"experiment": "in vitro", "conditions": "both, human, microsomes, pH 7.4"}, "In vivo clearance, dog": {"experiment": "In vivo clearance, dog", "from_the_text": "(§1) Clearance was modest in dog microsomes, and high in Cynomolgus monkey microsomes. Using a comparison of in vitro and in vivo clearance, human clearance can be predicted. The in vitro intrinsic clearance is influenced by animal weight, hepatic blood flow, relative liver weight, and amount of protein/liver weight. […] Human clearance is predicted to be low (Table 2)."}, "In vivo clearance, rat": {"experiment": "In vivo clearance, rat", "from_the_text": "as §1"}, "[5]": {"conditions": "dog, microsomes, 1 μM, pH 7.4"}, "In vivo clearance, mouse": {"experiment": "In vivo clearance, mouse", "conditions": "clearance call in words", "from_the_text": "as §1"}, "[6]": {"experiment": "Predicted human in vivo clearance", "conditions": "predicted from comparison of in vitro and in vivo clearance", "from_the_text": "as §1"}, "[7]": {"experiment": "In vivo clearance, monkey", "from_the_text": "as §1"}, "[8]": {"experiment": "Microsomal stability, pooled mouse liver microsomes", "format": "in vitro ADME", "conditions": "pH 7.4", "protocol": "Microsomes were stored at −80° C. prior to use.\nThe final incubation volume was 600 μL.\nThe elimination rate constant (k)=(−slope)"}, "plasma protein": {"system": "plasma protein", "experiment": "Plasma protein binding assay (equilibrium dialysis)", "format": "in vitro ADME", "conditions": "1 μM, equilibrium dialysis 16-20 hours at 37° C.", "protocol": "Reagents: 1× Isotonic PBS (Mediatech, Inc., Herndon, Va.); 96 Well Equilibrium Dialyzer (Harvard Apparatus, Holliston, Mass.) and Animal plasma from species of interest.\n1 μM solutions of test compound were prepared in both isotonic PBS and 10% animal plasma in isotonic PBS.\n200 μl of each test solution was added to opposite sides of the equilibrium dialysis membrane.\nSamples were incubated for 16-20 hours at 37° C.\nAfter incubation, 100 μl sample was removed from the PBS side and diluted with 100 μl of 20% animal plasma in PBS.\n100 μl sample was removed from the 10% animal plasma side and diluted with 100 μl of 10% animal plasma.\nA calibration curve was prepared in 10% animal plasma to extrapolate unknown concentrations.\nSamples were analyzed by LC/MS/MS.\n50 μl of samples, calibration standards and quality control standards were extracted with 100 μl of acetonitrile containing 25 ng/ml of internal standard.\nCalculations Calculate fraction unbound in 10% plasma Fu(10%)=1−(PC−PF)/PC) Convert 10% plasma value to 100% Fu(100%)=Fu10%/(10−9*Fu10%)."}, "P-Glycoprotein": {"target": "P-Glycoprotein (Homo sapiens (Human), UniProt P08183)", "sequence (P08183 whole entry)": "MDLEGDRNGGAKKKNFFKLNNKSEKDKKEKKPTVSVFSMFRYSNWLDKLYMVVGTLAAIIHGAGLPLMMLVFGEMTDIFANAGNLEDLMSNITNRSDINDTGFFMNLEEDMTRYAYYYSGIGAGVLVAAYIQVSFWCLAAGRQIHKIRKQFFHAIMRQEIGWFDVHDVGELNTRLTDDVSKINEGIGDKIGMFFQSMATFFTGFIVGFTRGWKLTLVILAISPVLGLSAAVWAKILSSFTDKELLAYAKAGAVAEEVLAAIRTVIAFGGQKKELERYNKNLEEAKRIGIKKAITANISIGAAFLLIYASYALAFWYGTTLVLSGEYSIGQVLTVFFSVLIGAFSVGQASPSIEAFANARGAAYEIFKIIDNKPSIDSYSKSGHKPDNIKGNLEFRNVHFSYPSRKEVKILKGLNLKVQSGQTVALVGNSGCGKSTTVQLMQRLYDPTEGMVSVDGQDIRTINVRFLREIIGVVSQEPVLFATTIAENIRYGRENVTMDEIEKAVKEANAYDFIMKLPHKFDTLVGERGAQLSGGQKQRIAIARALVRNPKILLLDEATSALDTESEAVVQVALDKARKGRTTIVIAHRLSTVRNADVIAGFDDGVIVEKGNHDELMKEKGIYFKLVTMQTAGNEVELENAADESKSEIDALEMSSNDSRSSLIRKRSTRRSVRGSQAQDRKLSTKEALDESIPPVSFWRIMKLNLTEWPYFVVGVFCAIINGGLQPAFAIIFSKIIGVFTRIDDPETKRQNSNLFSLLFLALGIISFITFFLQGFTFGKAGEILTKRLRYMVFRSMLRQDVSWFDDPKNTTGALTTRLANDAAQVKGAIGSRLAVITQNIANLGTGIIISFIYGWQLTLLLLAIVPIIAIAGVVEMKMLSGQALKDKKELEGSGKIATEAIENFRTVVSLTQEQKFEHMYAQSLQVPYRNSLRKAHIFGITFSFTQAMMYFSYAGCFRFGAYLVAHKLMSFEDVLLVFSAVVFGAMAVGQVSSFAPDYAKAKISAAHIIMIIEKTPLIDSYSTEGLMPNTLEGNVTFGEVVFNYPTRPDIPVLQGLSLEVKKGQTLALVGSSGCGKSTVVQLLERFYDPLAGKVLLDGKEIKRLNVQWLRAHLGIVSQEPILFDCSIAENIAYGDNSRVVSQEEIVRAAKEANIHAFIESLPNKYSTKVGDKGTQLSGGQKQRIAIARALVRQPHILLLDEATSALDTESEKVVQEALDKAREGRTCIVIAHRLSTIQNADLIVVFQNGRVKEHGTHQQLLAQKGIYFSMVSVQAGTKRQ", "experiment": "Digoxin bidirectional MDR1-MDCK permeability, Compound I-1 as an inhibitor", "conditions": "dog; for Papp A→B at 1 μM: MDCK-MDR1, pH 7.4, Digoxin PeAP→BL; for Papp B→A at 1 μM: MDCK-MDR1, pH 7.4, Digoxin PeBL→AP"}, "[9]": {"experiment": "Aqueous and surfactant solubility", "format": "physicochemical", "conditions": "room temperature overnight"}, "P-glycoprotein (MDR1)": {"system": "P-glycoprotein (MDR1)", "experiment": "in vitro", "conditions": "dog"}, "MDR1-MDCK cells": {"system": "MDR1-MDCK cells", "conditions": "dog, MDCK-MDR1, 10 μM, pH 7.4"}, "[10]": {"experiment": "Microsomal stability and metabolic turnover, pooled rat liver microsomes", "conditions": "pH 7.4"}, "[11]": {"experiment": "Microsomal stability and metabolic turnover, pooled dog liver microsomes", "conditions": "pH 7.4"}, "[12]": {"experiment": "Microsomal stability and metabolic turnover, pooled human liver microsomes", "conditions": "both, pH 7.4"}, "[13]": {"experiment": "Microsomal stability and metabolic turnover, pooled Cynomolgus monkey liver microsomes", "conditions": "pH 7.4"}, "[14]": {"conditions": "in vivo, read-out: In Vivo t1/2 (converted)"}, "[15]": {"conditions": "Table 17, Digoxin 1 μM alone, Std"}, "[16]": {"conditions": "Table 17, Digoxin 1 μM alone, Surf."}, "[17]": {"conditions": "preliminary experiment, Digoxin 1 μM alone, Std"}, "[18]": {"conditions": "preliminary experiment, Digoxin 1 μM alone, Surf."}}, "note": "Counter-ions that a name gives are not always drawn. Like-named read-outs stand apart in the source and are kept apart here."}
{"smiles": "CC(C)(C)c1cc(NC(=O)Nc2ccc(-c3cn4c(n3)sc3cc(OCCN5CCOCC5)ccc34)cc2)no1", "note": "[Compound IA, N-(5-tert-butyl-isoxazol-3-yl)-N′-{4-[7-(2-morpholin-4-yl-ethoxy)imidazo[2,1-b][1,3]benzothiazol-2-yl]phenyl}urea]", "values": [{"measurement": "EC50", "setting": "RS4;11 cells", "value": 4, "unit": "nM"}, {"measurement": "half-life at 1 μM", "setting": "in vitro [1]", "value": "> 60", "unit": "min"}, {"measurement": "microsomal CLint at 1 μM", "setting": "in vitro [1]", "value": "< 23", "unit": "µL/min/mg"}, {"measurement": "half-life at 1 μM", "setting": "in vitro [2]", "value": 19, "unit": "min"}, {"measurement": "microsomal CLint at 1 μM", "setting": "in vitro [2]", "value": 73, "unit": "µL/min/mg"}, {"measurement": "EC50", "setting": "MV4;11 cells", "value": 0.6, "unit": "nM"}, {"measurement": "microsomal CLint at 1 μM", "setting": "in vitro [3]; pH 7.4", "value": 42, "unit": "µL/min/mg"}, {"measurement": "half-life at 1 μM", "setting": "in vitro [3]; pH 7.4, Half-life", "value": 33, "unit": "min"}, {"measurement": "half-life at 1 μM", "setting": "in vitro [4]", "value": "> 60", "unit": "min"}, {"measurement": "microsomal CLint at 1 μM", "setting": "in vitro [4]", "value": "< 23", "unit": "µL/min/mg"}, {"measurement": "In Vivo Cl", "setting": "In vivo clearance, dog; clearance call in words", "value": "Modest"}, {"measurement": "half-life", "setting": "In vivo clearance, dog; [14]", "value": 366, "unit": "min"}, {"measurement": "In Vivo Cl", "setting": "In vivo clearance, rat; clearance call in words", "value": "Low"}, {"measurement": "half-life", "setting": "In vivo clearance, rat; [14]", "value": 414, "unit": "min"}, {"measurement": "half-life", "setting": "[5]", "value": 24, "unit": "min"}, {"measurement": "In Vivo Cl", "setting": "In vivo clearance, mouse", "value": "Low"}, {"measurement": "In Vivo Cl", "setting": "[6]", "value": "low and Low"}, {"measurement": "In Vivo Cl", "setting": "[7]; clearance call in words", "value": "High"}, {"measurement": "half-life", "setting": "[7]; [14]", "value": 162, "unit": "min"}, {"measurement": "half-life at 1 μM", "setting": "[8]; mouse, microsomes", "value": "> 60", "unit": "min"}, {"measurement": "microsomal CLint at 1 μM", "setting": "[8]; mouse, microsomes", "value": "< 23", "unit": "µL/min/mg"}]}
{"smiles": "CC(C)(C)c1cc(NC(=O)Nc2ccc(-c3cn4c(n3)sc3cc(OCCN5CCOCC5)ccc34)cc2)no1", "note": "[Compound IA, hydrochloride salt, N-(5-tert-butyl-isoxazol-3-yl)-N′-{4-[7-(2-morpholin-4-yl-ethoxy)imidazo[2,1-b][1,3]benzothiazol-2-yl]phenyl}urea, reference compound]", "values": [{"measurement": "Percentage of unbound compound in 10% plasma", "setting": "plasma protein", "value": 17, "unit": "%"}]}
{"smiles": "C[C@H]1O[C@@H](O[C@H]2[C@@H](O)C[C@H](O[C@H]3[C@@H](O)C[C@H](O[C@H]4CC[C@@]5(C)[C@H](CC[C@@H]6[C@@H]5C[C@@H](O)[C@]5(C)[C@@H](C7=CC(=O)OC7)CC[C@]65O)C4)O[C@@H]3C)O[C@@H]2C)C[C@H](O)[C@@H]1O", "note": "[Digoxin, reference compound]", "values": [{"measurement": "Papp A→B at 1 μM", "setting": "P-Glycoprotein; [15]", "value": 87.6, "unit": "nm/s"}, {"measurement": "Papp A→B at 1 μM", "setting": "P-Glycoprotein; [16]", "value": 22.1, "unit": "nm/s"}, {"measurement": "Papp A→B at 1 μM", "setting": "P-Glycoprotein; [17]", "value": 2.4, "unit": "nm/s"}, {"measurement": "Papp A→B at 1 μM", "setting": "P-Glycoprotein; [18]", "value": 29.1, "unit": "nm/s"}, {"measurement": "Papp B→A at 1 μM", "setting": "P-Glycoprotein; [15]", "value": 293, "unit": "nm/s"}, {"measurement": "Papp B→A at 1 μM", "setting": "P-Glycoprotein; [16]", "value": 49.3, "unit": "nm/s"}, {"measurement": "Papp B→A at 1 μM", "setting": "P-Glycoprotein; [17]", "value": 200, "unit": "nm/s"}, {"measurement": "Papp B→A at 1 μM", "setting": "P-Glycoprotein; [18]", "value": 60.3, "unit": "nm/s"}]}
{"smiles": "CC(=O)N1CCN(c2ccc(OCC3COC(Cn4ccnc4)(c4ccc(Cl)cc4Cl)O3)cc2)CC1", "note": "(stereo not drawn) [Ketoconazole]", "values": [{"measurement": "solubility", "setting": "[9]; HBSS containing 0.05% Polysorbate 80, 2.5% DMSO, read-out: Average Aqueous Solubility, 0.05% Polysorbate 80", "value": 86, "unit": "µM"}, {"measurement": "solubility", "setting": "[9]; HBSS pH 7.4, 2.5% DMSO, read-out: Average Aqueous Solubility, pH 7.4", "value": 18, "unit": "µM"}]}
{"smiles": "CC(C)NCC(O)COc1cccc2[nH]ccc12", "note": "(stereo not drawn) [Pindolol]", "values": [{"measurement": "efflux ratio at 10 μM", "setting": "P-glycoprotein (MDR1); MDCK-MDR1, pH 7.4, Assymetry Index", "value": 1}, {"measurement": "Papp A→B at 10 μM", "setting": "P-glycoprotein (MDR1); MDCK-MDR1, pH 7.4, PeAP→BL", "value": 317, "unit": "nm/s"}, {"measurement": "Papp B→A at 10 μM", "setting": "P-glycoprotein (MDR1); MDCK-MDR1, pH 7.4, PeBL→AP", "value": 306, "unit": "nm/s"}]}
{"smiles": "CNC(=C[N+](=O)[O-])NCCSCc1ccc(CN(C)C)o1", "note": "[Ranitidine]", "values": [{"measurement": "Assymetry Index", "setting": "MDR1-MDCK cells", "value": 1.9}, {"measurement": "PeAP→BL", "setting": "MDR1-MDCK cells", "value": 16.3, "unit": "nm/s"}, {"measurement": "PeBL→AP", "setting": "MDR1-MDCK cells", "value": 30.2, "unit": "nm/s"}]}
{"smiles": "COC(=O)[C@H]1[C@H]2C[C@@H]3c4[nH]c5cc(OC)ccc5c4CCN3C[C@H]2C[C@@H](OC(=O)c2cc(OC)c(OC)c(OC)c2)[C@@H]1OC", "note": "[Reserpine]", "values": [{"measurement": "solubility", "setting": "[9]; HBSS buffer with 0.05% Polysorbate 80, pH 7.4, aqueous with cosolvent or surfactant or cyclodextrin, kinetic from dmso stock, HBSS containing 0.05% Polysorbate 80, 2.5% DMSO, read-out: Average Aqueous Solubility, 0.05% Polysorbate 80", "value": 5, "unit": "µM"}, {"measurement": "solubility", "setting": "[9]; Hank's balanced salt solution (HBSS) buffer, aqueous buffer, kinetic from dmso stock, HBSS pH 7.4, 2.5% DMSO, read-out: Average Aqueous Solubility, pH 7.4", "value": "< 1", "unit": "µM"}]}
{"smiles": "C[C@]12CC[C@H]3[C@@H](CCC4=CC(=O)CC[C@@]43C)[C@@H]1CC[C@@H]2O", "note": "[Testosterone]", "values": [{"measurement": "half-life at 1 μM", "setting": "[10]", "value": 4, "unit": "min"}, {"measurement": "half-life at 1 μM", "setting": "[11]", "value": 60, "unit": "min"}, {"measurement": "half-life at 1 μM", "setting": "[12]", "value": 11, "unit": "min"}, {"measurement": "half-life at 1 μM", "setting": "[13]", "value": 3, "unit": "min"}, {"measurement": "half-life at 1 μM", "setting": "[8]; mouse liver microsomes, 1 μM, 0.5 mg/mL, NADPH, read-out: Half-life", "value": 6, "unit": "min"}]}
